Key:
α4β1 = α4β1 (Homo sapiens, UniProt P05556+P13612); test: α4β1 integrin inhibition, IC50; format: binding; details: read-out: α4β1 IC50
α4β7 = target: T1, α4β7 (Homo sapiens, UniProt P13612+P26010); test: α4β7 integrin inhibition, IC50; format: binding
T1 sequence (P13612 34-1032): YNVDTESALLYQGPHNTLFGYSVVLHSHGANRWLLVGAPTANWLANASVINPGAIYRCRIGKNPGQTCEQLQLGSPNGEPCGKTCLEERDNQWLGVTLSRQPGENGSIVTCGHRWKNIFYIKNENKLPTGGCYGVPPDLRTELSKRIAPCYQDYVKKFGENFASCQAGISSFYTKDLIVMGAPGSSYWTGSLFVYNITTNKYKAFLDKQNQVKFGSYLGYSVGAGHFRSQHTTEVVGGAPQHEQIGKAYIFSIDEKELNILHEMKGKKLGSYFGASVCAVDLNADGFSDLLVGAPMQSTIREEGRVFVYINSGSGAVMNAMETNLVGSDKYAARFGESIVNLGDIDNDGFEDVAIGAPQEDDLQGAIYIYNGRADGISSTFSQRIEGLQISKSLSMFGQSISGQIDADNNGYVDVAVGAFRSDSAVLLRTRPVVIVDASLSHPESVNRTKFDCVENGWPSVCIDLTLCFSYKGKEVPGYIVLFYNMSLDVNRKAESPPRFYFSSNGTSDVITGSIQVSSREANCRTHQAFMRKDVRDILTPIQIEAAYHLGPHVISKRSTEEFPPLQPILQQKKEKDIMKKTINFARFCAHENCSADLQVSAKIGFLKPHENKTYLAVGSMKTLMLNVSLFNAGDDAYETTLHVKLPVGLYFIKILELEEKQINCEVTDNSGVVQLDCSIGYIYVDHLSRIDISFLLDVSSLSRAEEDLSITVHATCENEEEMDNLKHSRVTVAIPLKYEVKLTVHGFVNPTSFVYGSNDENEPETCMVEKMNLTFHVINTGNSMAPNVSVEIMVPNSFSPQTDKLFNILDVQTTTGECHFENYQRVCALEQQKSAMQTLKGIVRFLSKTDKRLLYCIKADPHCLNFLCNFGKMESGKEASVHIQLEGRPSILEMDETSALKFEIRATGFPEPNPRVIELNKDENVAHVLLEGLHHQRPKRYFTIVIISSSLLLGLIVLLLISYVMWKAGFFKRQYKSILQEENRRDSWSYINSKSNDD
T1 sequence (P26010 20-798): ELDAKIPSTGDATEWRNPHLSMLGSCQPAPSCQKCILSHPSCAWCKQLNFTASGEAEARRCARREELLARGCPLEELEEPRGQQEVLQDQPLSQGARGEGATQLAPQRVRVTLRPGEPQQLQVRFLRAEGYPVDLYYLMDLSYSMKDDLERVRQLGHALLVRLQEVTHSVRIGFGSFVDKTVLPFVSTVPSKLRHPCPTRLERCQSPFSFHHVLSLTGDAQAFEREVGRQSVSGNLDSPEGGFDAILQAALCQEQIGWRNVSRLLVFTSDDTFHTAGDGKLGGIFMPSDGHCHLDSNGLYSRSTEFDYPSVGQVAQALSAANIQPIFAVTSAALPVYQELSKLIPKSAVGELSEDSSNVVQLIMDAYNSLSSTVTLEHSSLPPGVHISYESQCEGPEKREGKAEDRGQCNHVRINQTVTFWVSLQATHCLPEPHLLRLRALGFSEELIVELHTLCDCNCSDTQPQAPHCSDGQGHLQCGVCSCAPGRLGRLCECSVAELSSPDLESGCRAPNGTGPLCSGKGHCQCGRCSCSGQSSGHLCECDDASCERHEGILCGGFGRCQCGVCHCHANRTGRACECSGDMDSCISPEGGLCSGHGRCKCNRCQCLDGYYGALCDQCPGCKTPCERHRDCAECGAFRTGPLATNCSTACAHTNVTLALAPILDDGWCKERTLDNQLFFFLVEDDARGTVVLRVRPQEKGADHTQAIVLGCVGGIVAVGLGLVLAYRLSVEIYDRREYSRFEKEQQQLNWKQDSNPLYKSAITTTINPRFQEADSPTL

Chain of α4β1 (P05556 21-798, one chain of several): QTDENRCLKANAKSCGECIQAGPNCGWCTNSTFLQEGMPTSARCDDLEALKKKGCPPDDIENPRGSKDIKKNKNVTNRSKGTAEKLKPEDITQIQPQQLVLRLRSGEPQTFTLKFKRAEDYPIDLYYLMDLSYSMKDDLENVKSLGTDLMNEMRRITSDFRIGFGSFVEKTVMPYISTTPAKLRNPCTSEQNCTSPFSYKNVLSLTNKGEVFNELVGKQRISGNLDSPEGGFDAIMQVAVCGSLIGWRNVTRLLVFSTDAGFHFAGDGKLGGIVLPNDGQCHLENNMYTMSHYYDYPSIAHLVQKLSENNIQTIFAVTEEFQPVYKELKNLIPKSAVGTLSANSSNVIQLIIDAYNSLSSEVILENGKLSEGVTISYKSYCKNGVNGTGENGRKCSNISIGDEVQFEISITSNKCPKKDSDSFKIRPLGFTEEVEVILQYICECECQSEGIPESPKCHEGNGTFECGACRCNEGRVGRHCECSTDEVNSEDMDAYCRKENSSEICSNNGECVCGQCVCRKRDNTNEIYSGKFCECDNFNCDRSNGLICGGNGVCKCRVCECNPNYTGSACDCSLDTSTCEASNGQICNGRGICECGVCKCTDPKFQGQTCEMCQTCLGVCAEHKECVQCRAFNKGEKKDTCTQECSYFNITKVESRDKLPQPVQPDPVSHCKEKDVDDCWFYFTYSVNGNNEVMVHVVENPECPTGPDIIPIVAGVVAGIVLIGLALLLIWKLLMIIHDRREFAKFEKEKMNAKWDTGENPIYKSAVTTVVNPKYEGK

Row | SMILES | IC50 (α4β1) | IC50 (α4β7)
1 | COc1cc(-c2c(C)cccc2C)cc([C@H](CC(=O)O)NC(=O)Nc2c(O)ccn(C)c2=O)c1 [1-579, sodium (S)-3-(5-methoxy-2′,6′-dimethylbiphenyl-3-yl)-3-(3-(1-methyl-4-oxido-2-oxo-1,2-dihydropyridin-3-yl)ureido)propanoate] | < 0.02 µM | < 0.02 µM
2 | COc1cccc(-c2cc(C)cc([C@H](CC(=O)O)NC(=O)Nc3c(O)ccn(C)c3=O)c2)c1 [1-582, sodium (S)-3-(3′-methoxy-5-methylbiphenyl-3-yl)-3-(3-(1-methyl-4-oxido-2-oxo-1,2-dihydropyridin-3-yl)ureido)propanoate] | < 0.02 µM | < 0.2 µM
3 | Cc1cccc(C)c1-c1cccc([C@H](CC(=O)O)NC(=O)Nc2c(O)cc3n(c2=O)CCC3)c1 [1-583, sodium (S)-3-(2′,6′-dimethylbiphenyl-3-yl)-3-(3-(7-oxido-5-oxo-1,2,3,5-tetrahydroindolizin-6-yl)ureido)propanoate] | < 0.02 µM | < 0.02 µM
4 | O=C(O)C[C@H](NC(=O)Nc1c(O)cc2n(c1=O)CCC2)c1cccc(-c2ccc(F)cc2F)c1 [1-629, sodium (S)-3-(2′,4′-difluorobiphenyl-3-yl)-3-(3-(7-oxido-5-oxo-1,2,3,5-tetrahydroindolizin-6-yl)ureido)propanoate] | < 0.02 µM | > 0.2 µM

Other lines, results leading:

Row | IC50 (α4β1) | IC50 (α4β7) | SMILES
5 | < 0.02 µM | > 0.2 µM | Cc1cc(-c2cccc(OC(F)(F)F)c2)cc([C@H](CC(=O)O)NC(=O)Nc2c(O)ccn(C)c2=O)c1 [1-572, sodium (S)-3-(5-methyl-3′-(trifluoromethoxy)biphenyl-3-yl)-3-(3-(1-methyl-4-oxido-2-oxo-1,2-dihydropyridin-3-yl)ureido)propanoate]
6 | < 0.02 µM | < 0.02 µM | COc1cc(-c2c(C)cccc2C)cc([C@H](CC(=O)O)NC(=O)Nc2c(O)cc(C)n(C)c2=O)c1 [1-580, sodium (S)-3-(3-(1,6-dimethyl-4-oxido-2-oxo-1,2-dihydropyridin-3-yl)ureido)-3-(5-methoxy-2′,6′-dimethylbiphenyl-3-yl)propanoate]
7 | < 0.02 µM | < 0.02 µM | Cc1cccc(C)c1-c1ccc(F)c([C@H](CC(=O)O)NC(=O)Nc2c(O)ccn(C)c2=O)c1 [1-590, sodium (S)-3-(4-fluoro-2′,6′-dimethylbiphenyl-3-yl)-3-(3-(1-methyl-4-oxido-2-oxo-1,2-dihydropyridin-3-yl)ureido)propanoate]
8 | < 0.02 µM | < 0.02 µM | Cc1cccc(C)c1-c1cc(F)cc([C@H](CC(=O)O)NC(=O)Nc2c(O)cc(C)n(C)c2=O)c1 [1-642, sodium (S)-3-(3-(1,6-dimethyl-4-oxido-2-oxo-1,2-dihydropyridin-3-yl)ureido)-3-(5-fluoro-2′,6′-dimethylbiphenyl-3-yl)propanoate]

Source: patent publication US10875875B2, “Propionic acid derivatives and methods of use thereof” (Aviara Pharmaceuticals, Inc., priority 2017, dated 2020)
